Measured values taken from US20260008862A1, “Bispecific Anti-BCMA x Anti-CD3 Antibodies and Uses Thereof” (Regeneron Pharmaceuticals, Inc., priority 2018, published 2026).
Read-outs that look alike come from different tables or passages of the source.

How the values were obtained:
[1] = test system: Jurkat/NFATLuc.3C7 cells + Daudi cells; assay: Jurkat/NFATLuc reporter bioassay with Daudi cells; type: cell-based; details: highest RLU / lowest RLU
Procedure: (§1) Activity of the anti-BCMA×anti-CD3 bispecific antibodies were assessed in a Jurkat/NFATLuc reporter bioassay utilizing several cell lines with varying levels of BCMA surface expression. The Jurkat cells were engineered to express an NFAT-luciferase reporter (Jurkat/NFATLuc.3C7), and 50,000 Jurkat reporter cells were combined with 50,000 BCMA positive (Daudi, MM1-S, NCI-H929, OPM-2, RPMI-8226, MOLP-8, or Raji) or BCMA negative (HEK293) cells in Thermo Nunclon delta 96 well white microwell plates (Thermo Scientific, Cat #136102) in 50 ul of assay media (RPMI media with 10% FBS and 1% P/S/G). Three-fold serial dilutions of the BCMA×CD3 bispecific antibodies (mAb25441 D or mAb25442D), or a bivalent anti-BCMA antibody (mAb21581) were immediately added in 50 μL of assay buffer. The plates were gently agitated and incubated in a 37° C., 5% CO2 incubator for 4-6 hours. NFAT-Luciferase activity was determined using Promega One-Glo (Cat #E6130) and a Perkin Elmer Envision plate reader. RLU were plotted in GraphPad Prism using a four-parameter logistic equation over a 12-point response curve to calculate EC50 values. […] The signal to noise (S:N) is determined by taking the ratio of the highest RLU on the curve to the lowest.

[2] = test system: Jurkat/NFATLuc.3C7 cells + RPMI-8226 cells; assay: Jurkat/NFATLuc reporter bioassay with RPMI-8226 cells; type: cell-based; details: highest RLU / lowest RLU
Procedure: as §1

[3] = test system: primary multiple myeloma blast cells; assay: FACS cytotoxicity assay, autologous T cell-mediated killing of primary multiple myeloma blast cells; type: cell-based, human; details: for EC50: read-out: MM Lysis EC50
Procedure: In order to monitor the specific killing of multiple myeloma cells by flow cytometry, bone marrow mononuclear cells (BMMC) from multiple myeloma patients were plated on human stromal cells (HS5) and rested overnight at 37 C. Separately, matching patient peripheral blood mononuclear cells (PBMC) were thawed and cultured in supplemented RPMI media at 1×10^6 cells/mL overnight at 37° C. in order to enrich for lymphocytes by depleting adherent cells. The next day, BMMC were co-incubated with adherent cell-depleted naïve PBMC on stromal cells (HS5) and a serial […] dilution of BCMA×CD3 bispecific or 1-arm CD3 isotype control (starting concentration 66.7 nM) at 37° C. Cells were removed from cell culture plates at day 3, 4 or 7 and analyzed by FACS. For the assessment of specificity of killing, multiple myeloma cells were gated as single, live, CD90 negative (to exclude stromal cells), CD2 negative, CD56 positive. CD45 was low on multiple myeloma cells in most samples except MM455. Percent of live target cells was reported for the calculation of adjusted survival as follows: Adjusted survival=(R1/R2)*100, where R1=% live target cells in the presence of antibody, and R2=% live target cells in the absence of test antibody.
T cells were gated as CD2 positive, CD56 negative and either CD4 or CD8 positive. T cell activation was reported as the percent of CD25+CD4 or CD8 T cells out of total CD4 or CD8 T cells.

[4] = test system: BCMA-expressing MOLP-8 tumors; assay: MOLP-8 + PBMC subcutaneous xenogenic tumor model, dose response (Example 13); type: in vivo, mouse
Procedure: To determine the in vivo efficacy of anti-BCMA×anti-CD3 bispecific antibodies (Abs), a xenogenic tumor study was performed. Immunodeficient NOD.Cg-Prkdc^scidIl2rg^tm1Wji/SzJ (NSG) mice were subcutaneously implanted with a mixture of 5×10^6 BCMA-expressing MOLP-8 human multiple myeloma tumor cells and 1×10^6 human peripheral blood mononuclear cells (PBMC) isolated from a normal, healthy donor. […] The mice were administered these Abs twice per week for a total of seven doses, and tumor growth was assessed over 56 days. While the BCMA^+ MOLP-8 tumors grew similarly in the vehicle- and CD3-binding control-treated mice, both BCMA×CD3 Abs that were tested prevented the growth of tumors in a dose-dependent manner in vivo.
Implantation and measurement of xenogenic tumors: NSG mice were subcutaneously implanted with a mixture of 5×10^6 BCMA-expressing MOLP-8 multiple myeloma cells and 1×10^6 PBMC derived from a normal, healthy donor. […] The mice were administered Abs twice per week for a total of seven doses. Tumor growth was measured by caliper twice per week for the duration of the experiment.
Calculation of xenogenic tumor growth and inhibition: In order to determine tumor volume by external caliper, the greatest longitudinal diameter (length in mm) and the greatest transverse diameter (width in mm) were determined. Tumor volumes based on caliper measurements were calculated by the formula: Volume (mm^3)=(length×width^2)/2.

“REGN5459: anti-BCMA×anti-CD3 bispecific antibody: BCMA HCVR of mAb21581 (SEQ 66), CD3 HCVR of mAb7221G20 (SEQ 98), common LCVR SEQ 82” was tested, and the “S:N” value [1] was 25, the “S:N” value [2] was 42 and the EC50 ([3]; sample MM2, E:T 1.4, 7 days) was 7.24 nM. For the same substance, the “% MM lysis at 66 nM” value ([3]; sample MM2, newly diagnosed, E:T 1.4, 7 days) was 85%, the EC50 ([3]; sample MM369, E:T 0.3, 3 days) was 0.496 nM and the “% MM lysis at 66 nM” value ([3]; sample MM369, newly diagnosed, E:T 0.3, 3 days) was 94%. For the same substance, the EC50 ([3]; sample MM453, E:T 2.4, 3 days) was 1.19 nM, the “% MM lysis at 66 nM” value ([3]; sample MM453, newly diagnosed, E:T 2.4, 3 days) was 80% and the EC50 ([3]; sample MM455, E:T 0.4, 3 days) was 79.4 nM. The “% MM lysis at 66 nM” value ([3]; sample MM455, progression, treated, E:T 0.4, 3 days) was 52%, the “Average Tumor Size (mm3) ± SEM on Day 3” value ([4]; 0.04 mg/kg) was 11.7 ± 2.1 mm3 and the “Average Tumor Size (mm3) ± SEM on Day 7” value ([4]; 0.04 mg/kg) was 37.0 ± 5.7 mm3. The “Average Tumor Size (mm3) ± SEM on Day 10” value ([4]; 0.04 mg/kg) was 104 ± 23.0 mm3, the “Average Tumor Size (mm3) ± SEM on Day 14” value ([4]; 0.04 mg/kg) was 356.7 ± 84.6 mm3 and the “Average Tumor Size (mm3) ± SEM on Day 17” value ([4]; 0.04 mg/kg) was 645.6 ± 140.9 mm3. For the same substance, the “Average Tumor Size (mm3) ± SEM on Day 21” value ([4]; 0.04 mg/kg) was 1442.4 ± 310.7 mm3, the “Average Tumor Size (mm3) ± SEM on Day 23” value ([4]; 0.04 mg/kg) was 2124.4 ± 444.1 mm3 and the “Average Tumor Size (mm3) ± SEM on Day 28” value ([4]; 0.04 mg/kg) was 1939.3 ± 840.6 mm3. For the same substance, the “Average Tumor Size (mm3) ± SEM on Day 31” value ([4]; 0.04 mg/kg) was 2688.7 ± 1176.6 mm3, the “Average Tumor Size (mm3) ± SEM on Day 35” value ([4]; 0.04 mg/kg) was 612.1 ± 0 mm3 and the “Average Tumor Size (mm3) ± SEM on Day 3” value ([4]; 0.4 mg/kg) was 14.0 ± 1.6 mm3. The “Average Tumor Size (mm3) ± SEM on Day 7” value ([4]; 0.4 mg/kg) was 0 ± 0 mm3, the “Average Tumor Size (mm3) ± SEM on Day 10” value ([4]; 0.4 mg/kg) was 0 ± 0 mm3 and the “Average Tumor Size (mm3) ± SEM on Day 14” value ([4]; 0.4 mg/kg) was 0 ± 0 mm3. The “Average Tumor Size (mm3) ± SEM on Day 17” value ([4]; 0.4 mg/kg) was 0 ± 0 mm3, the “Average Tumor Size (mm3) ± SEM on Day 21” value ([4]; 0.4 mg/kg) was 0 ± 0 mm3 and the “Average Tumor Size (mm3) ± SEM on Day 23” value ([4]; 0.4 mg/kg) was 0 ± 0 mm3. The “Average Tumor Size (mm3) ± SEM on Day 28” value ([4]; 0.4 mg/kg) was 0 ± 0 mm3, the “Average Tumor Size (mm3) ± SEM on Day 31” value ([4]; 0.4 mg/kg) was 0 ± 0 mm3 and the “Average Tumor Size (mm3) ± SEM on Day 35” value ([4]; 0.4 mg/kg) was 0 ± 0 mm3. For the same substance, the “Average Tumor Size (mm3) ± SEM on Day 42” value ([4]; 0.4 mg/kg) was 0 ± 0 mm3, the “Average Tumor Size (mm3) ± SEM on Day 56” value ([4]; 0.4 mg/kg) was 0 ± 0 mm3 and the “Average Tumor Size (mm3) ± SEM on Day 3” value ([4]; 4 mg/kg) was 12.9 ± 1.3 mm3. For the same substance, the “Average Tumor Size (mm3) ± SEM on Day 7” value ([4]; 4 mg/kg) was 0.6 ± 0.6 mm3, the “Average Tumor Size (mm3) ± SEM on Day 10” value ([4]; 4 mg/kg) was 0 ± 0 mm3 and the “Average Tumor Size (mm3) ± SEM on Day 14” value ([4]; 4 mg/kg) was 0 ± 0 mm3. The “Average Tumor Size (mm3) ± SEM on Day 17” value ([4]; 4 mg/kg) was 0 ± 0 mm3, the “Average Tumor Size (mm3) ± SEM on Day 21” value ([4]; 4 mg/kg) was 0 ± 0 mm3 and the “Average Tumor Size (mm3) ± SEM on Day 23” value ([4]; 4 mg/kg) was 0 ± 0 mm3. For the same substance, the “Average Tumor Size (mm3) ± SEM on Day 28” value ([4]; 4 mg/kg) was 1.9 ± 1.9 mm3, the “Average Tumor Size (mm3) ± SEM on Day 31” value ([4]; 4 mg/kg) was 3.8 ± 3.0 mm3 and the “Average Tumor Size (mm3) ± SEM on Day 35” value ([4]; 4 mg/kg) was 9.3 ± 7.5 mm3. The “Average Tumor Size (mm3) ± SEM on Day 42” value ([4]; 4 mg/kg) was 12.8 ± 12.8 mm3 and the “Average Tumor Size (mm3) ± SEM on Day 56” value ([4]; 4 mg/kg) was 17.2 ± 17.2 mm3.
